Converted amounts (≈) assume the structure as drawn.
Key:
[1] = target: T1, p300 (H3 peptide) (Homo sapiens, UniProt Q09472); assay: Radiometric enzyme activity assay, p300 (H3 peptide); assay type: biochemical; conditions: 5 μg/ml NR-818, 10 μM ATP
T1 construct: purchased Upstate Biotechnology
Method: (§1) GSK-3 were assayed for their ability to phosphorylate the appropriate peptide/protein substrate in the presence of 5 μg/ml NR-818 and 10 μM ATP. Using the direct radiometric approach, kinase activities were determined and expressed as % activity compared to the untreated control (Upstate Biotechnology, Lake Placid, N.Y.). Activities are given as the mean of duplicate determinations relative to control incubations in which the inhibitor was substituted with DMSO. In the following table 1 providing results for NR818, the following abbreviations are used: • CDK, cyclin-dependent kinase; • CK, casein kinase; • eEF-2K, eukaryotic elongation factor-2 kinase; • JNK, c-Jun N-terminal kinase; • MAPK, mitogen-activated protein kinase; • PKC, protein kinase C; and • PI 3-kinase, phosphatidylinositol 3-kinase.

[2] = test system: M17-TAU P301L cells; assay: TAU cytotoxicity (LDH leakage) in retinoic acid incubated M17-TAU P301L cells; assay type: cell-based, human; conditions: Homo sapiens, 168 h, reduction of LDH activity of retinoic acid incubated M17-TAU P301L cells, 7 days; read-out: IC50
Excerpt: An TAU expression plasmid was constructed by sub-cloning the cDNA of human TAU-P301L (encoding for TAU with proline 301 substituted by a leucine residue) into mammalian expression vector pcDNA3.1 resulting in plasmid pcDNA3.1-TAU P301L. Plasmids pcDNA3.1 and pcDNA3.1-TAU P301L were transfected to human neuroblastoma cells ([…]; ATCC No. CRL-2267) and independent clonal lines with the plasmids stably integrated into the genome were selected. […] Expression of the TAU P301L genes in the cell lines was confirmed by Western analysis.
In degenerated or dead cells, lactate dehydrogenase (LDH) is leaked out of the cells into the extracellular environment due to a loss of plasma-membrane integrity. This principle was used to determine cytotoxicity by quantifying the level of leaked LDH into the growth medium.
The detailed method for determining TAU cytotoxicity was as follows: From appropriate precultures of M17-3.1 and M17-TAU(P301L) cells were seeded at 2500 cells/cm2 in Optimem Reduced Serum without phenol red (Gibco, Cat. 31985-047) supplemented with 1% fetal calf serum, 1 mM sodium pyruvate, 1× non-essential amino acids, 500 μg/ml G418 0.5× antibiotic/antimycotic. After 3 hours of incubation at 37° C./5% CO2 1 volume of Optimem Reduced Serum (same as described above; except without fetal calf serum) supplemented with 2.5 μM retinoic acid (RA) was added. The cells were further incubated for 7 days. Subsequently, LDH activity was determined using Promega Cytotox 96 Non-Radioactive cytotoxicity assay, (Cat. G1780) according the supplier's instructions.
The M17-TAU P301L cell line made it possible to assess the ability of the compounds of this invention to counteract TAU cytotoxicity. […] Potency of the relevant compounds was determined by testing them at different concentrations ranging from non-effective (thus at a relatively low concentration) to an effective concentration for their ability to reduce LDH activity of retinoic acid incubated M17-TAU P301L cells.

[3] = target: T2, P/CAF (H3 peptide) (Homo sapiens, UniProt Q92831); assay: Radiometric enzyme activity assay, P/CAF (H3 peptide); assay type: biochemical; conditions: 5 μg/ml NR-818, 10 μM ATP
T2 construct: purchased Upstate Biotechnology
Method: as §1

[4] = target: T3, CDK5/p35 (Homo sapiens, UniProt Q00535); assay: Radiometric kinase activity assay; assay type: biochemical; conditions: 5 μg/ml NR-818, 10 μM ATP
T3 construct: purchased Upstate Biotechnology
T3 sequence (Q00535 whole entry): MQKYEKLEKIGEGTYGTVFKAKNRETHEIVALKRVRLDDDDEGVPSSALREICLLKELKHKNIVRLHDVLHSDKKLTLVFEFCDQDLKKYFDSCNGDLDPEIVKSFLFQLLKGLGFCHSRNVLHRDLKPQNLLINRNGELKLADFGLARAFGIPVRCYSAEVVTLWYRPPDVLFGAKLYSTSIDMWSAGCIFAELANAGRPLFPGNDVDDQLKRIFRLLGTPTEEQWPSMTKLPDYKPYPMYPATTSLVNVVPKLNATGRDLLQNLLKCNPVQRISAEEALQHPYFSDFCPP
T3 sequence (Q15078 2-307 partner limits assumed): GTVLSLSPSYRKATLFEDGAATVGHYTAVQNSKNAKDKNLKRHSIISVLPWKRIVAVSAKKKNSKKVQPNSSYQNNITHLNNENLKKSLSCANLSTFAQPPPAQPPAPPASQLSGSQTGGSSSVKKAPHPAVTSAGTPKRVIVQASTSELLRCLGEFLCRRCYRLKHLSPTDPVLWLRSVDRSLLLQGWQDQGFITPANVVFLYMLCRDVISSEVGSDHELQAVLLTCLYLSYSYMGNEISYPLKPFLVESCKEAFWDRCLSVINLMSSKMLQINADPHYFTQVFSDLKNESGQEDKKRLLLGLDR
Method: as §1

[5] = target: T4, CDK9/cyclinT1 (Homo sapiens, UniProt P50750); assay: Radiometric kinase activity assay; assay type: biochemical; conditions: 5 μg/ml NR-818, 10 μM ATP
T4 construct: purchased Upstate Biotechnology
Method: as §1

[6] = target: T5, CDK2/cyclinA (Homo sapiens, UniProt P24941); assay: Radiometric kinase activity assay; assay type: biochemical; conditions: 5 μg/ml NR-818, 10 μM ATP
T5 construct: purchased Upstate Biotechnology
Method: as §1

[7] = target: T6, CDK3/cyclinE (Homo sapiens, UniProt Q00526); assay: Radiometric kinase activity assay; assay type: biochemical; conditions: 5 μg/ml NR-818, 10 μM ATP
T6 construct: purchased Upstate Biotechnology
Method: as §1

[8] = target: T7, PKCζ (Homo sapiens, UniProt Q05513); assay: Radiometric kinase activity assay; assay type: biochemical; conditions: 5 μg/ml NR-818, 10 μM ATP
T7 construct: purchased Upstate Biotechnology
Method: as §1

[9] = target: T8, MAPK2 (Homo sapiens, UniProt P28482); assay: Radiometric kinase activity assay; assay type: biochemical; conditions: 5 μg/ml NR-818, 10 μM ATP
T8 construct: purchased Upstate Biotechnology
T8 sequence (P28482 whole entry): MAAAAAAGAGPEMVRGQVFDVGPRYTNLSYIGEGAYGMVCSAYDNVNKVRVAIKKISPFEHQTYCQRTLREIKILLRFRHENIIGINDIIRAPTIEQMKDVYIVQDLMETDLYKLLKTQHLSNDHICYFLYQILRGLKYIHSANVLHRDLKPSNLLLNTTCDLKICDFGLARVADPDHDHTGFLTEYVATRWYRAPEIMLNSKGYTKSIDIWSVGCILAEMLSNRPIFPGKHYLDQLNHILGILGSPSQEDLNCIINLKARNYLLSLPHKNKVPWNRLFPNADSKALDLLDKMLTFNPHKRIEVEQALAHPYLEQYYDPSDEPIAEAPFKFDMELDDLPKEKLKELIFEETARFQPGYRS
Method: as §1

[10] = target: T9, CK2 (Homo sapiens, UniProt P68400); assay: Radiometric kinase activity assay; assay type: biochemical; conditions: 5 μg/ml NR-818, 10 μM ATP
T9 construct: purchased Upstate Biotechnology
Method: as §1

[11] = target: T10, CDK1/cyclinB (Homo sapiens, UniProt P06493); assay: Radiometric kinase activity assay; assay type: biochemical; conditions: 5 μg/ml NR-818, 10 μM ATP
T10 construct: purchased Upstate Biotechnology
T10 sequence (P06493 whole entry): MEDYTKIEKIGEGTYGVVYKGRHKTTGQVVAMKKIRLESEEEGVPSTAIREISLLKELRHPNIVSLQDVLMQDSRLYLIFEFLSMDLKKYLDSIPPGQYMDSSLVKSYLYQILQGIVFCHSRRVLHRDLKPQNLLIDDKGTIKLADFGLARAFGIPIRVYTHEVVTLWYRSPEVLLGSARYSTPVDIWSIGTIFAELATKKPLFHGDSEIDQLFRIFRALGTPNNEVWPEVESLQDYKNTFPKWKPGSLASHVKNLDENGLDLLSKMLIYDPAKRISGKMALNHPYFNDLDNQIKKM
T10 sequence (P14635 whole entry partner): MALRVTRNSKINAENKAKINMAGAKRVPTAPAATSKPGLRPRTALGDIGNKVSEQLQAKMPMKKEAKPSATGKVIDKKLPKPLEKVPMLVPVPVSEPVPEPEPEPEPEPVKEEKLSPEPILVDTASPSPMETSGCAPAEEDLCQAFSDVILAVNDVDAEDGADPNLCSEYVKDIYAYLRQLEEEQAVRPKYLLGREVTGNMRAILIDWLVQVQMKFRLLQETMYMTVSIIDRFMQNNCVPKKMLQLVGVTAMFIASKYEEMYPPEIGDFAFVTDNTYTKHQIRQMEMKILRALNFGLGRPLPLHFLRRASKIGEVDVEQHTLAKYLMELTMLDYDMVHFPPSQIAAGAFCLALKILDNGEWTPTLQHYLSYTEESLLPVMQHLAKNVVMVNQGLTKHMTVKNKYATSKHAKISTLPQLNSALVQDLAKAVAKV
Method: as §1

[12] = target: T11, PI 3-kinaseγ (Homo sapiens, UniProt P48736); assay: Radiometric kinase activity assay; assay type: biochemical; conditions: 5 μg/ml NR-818, 10 μM ATP
T11 construct: purchased Upstate Biotechnology
T11 sequence (P48736 whole entry): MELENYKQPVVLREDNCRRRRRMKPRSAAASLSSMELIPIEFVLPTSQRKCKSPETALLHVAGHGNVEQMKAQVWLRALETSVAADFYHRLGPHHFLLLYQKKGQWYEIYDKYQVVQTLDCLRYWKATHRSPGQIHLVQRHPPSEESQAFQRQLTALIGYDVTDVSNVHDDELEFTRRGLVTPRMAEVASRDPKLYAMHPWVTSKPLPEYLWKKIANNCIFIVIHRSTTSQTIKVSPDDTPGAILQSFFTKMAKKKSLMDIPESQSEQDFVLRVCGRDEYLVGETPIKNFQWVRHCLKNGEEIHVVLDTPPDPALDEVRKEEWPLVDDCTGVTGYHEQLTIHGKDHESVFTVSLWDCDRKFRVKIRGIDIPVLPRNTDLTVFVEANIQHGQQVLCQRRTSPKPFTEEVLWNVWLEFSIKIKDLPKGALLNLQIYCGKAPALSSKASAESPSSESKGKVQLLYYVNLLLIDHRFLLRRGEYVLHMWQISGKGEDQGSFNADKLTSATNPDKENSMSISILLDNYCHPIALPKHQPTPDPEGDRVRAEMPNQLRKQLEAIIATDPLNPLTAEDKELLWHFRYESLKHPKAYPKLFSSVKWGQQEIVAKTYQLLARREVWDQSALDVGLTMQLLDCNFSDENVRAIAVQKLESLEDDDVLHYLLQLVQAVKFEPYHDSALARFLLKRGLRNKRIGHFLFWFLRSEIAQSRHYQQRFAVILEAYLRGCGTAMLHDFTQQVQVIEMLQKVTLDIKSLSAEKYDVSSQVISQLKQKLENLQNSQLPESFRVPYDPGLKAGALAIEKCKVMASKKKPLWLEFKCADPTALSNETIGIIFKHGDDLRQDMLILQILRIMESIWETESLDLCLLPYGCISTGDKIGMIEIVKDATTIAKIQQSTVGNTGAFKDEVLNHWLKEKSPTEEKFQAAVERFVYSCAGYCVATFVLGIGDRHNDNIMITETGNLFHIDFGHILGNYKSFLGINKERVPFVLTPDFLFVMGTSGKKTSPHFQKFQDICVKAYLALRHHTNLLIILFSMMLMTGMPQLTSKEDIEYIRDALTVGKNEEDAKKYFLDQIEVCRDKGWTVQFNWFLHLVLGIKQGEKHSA
Method: as §1

[13] = target: T12, JNK2α2 (Homo sapiens, UniProt P45984); assay: Radiometric kinase activity assay; assay type: biochemical; conditions: 5 μg/ml NR-818, 10 μM ATP
T12 construct: purchased Upstate Biotechnology
Method: as §1

[14] = target: T13, PI 3-kinaseδ (Homo sapiens, UniProt O00329); assay: Radiometric kinase activity assay; assay type: biochemical; conditions: 5 μg/ml NR-818, 10 μM ATP
T13 construct: purchased Upstate Biotechnology, Lake Placid, N.Y
T13 sequence (O00329 whole entry): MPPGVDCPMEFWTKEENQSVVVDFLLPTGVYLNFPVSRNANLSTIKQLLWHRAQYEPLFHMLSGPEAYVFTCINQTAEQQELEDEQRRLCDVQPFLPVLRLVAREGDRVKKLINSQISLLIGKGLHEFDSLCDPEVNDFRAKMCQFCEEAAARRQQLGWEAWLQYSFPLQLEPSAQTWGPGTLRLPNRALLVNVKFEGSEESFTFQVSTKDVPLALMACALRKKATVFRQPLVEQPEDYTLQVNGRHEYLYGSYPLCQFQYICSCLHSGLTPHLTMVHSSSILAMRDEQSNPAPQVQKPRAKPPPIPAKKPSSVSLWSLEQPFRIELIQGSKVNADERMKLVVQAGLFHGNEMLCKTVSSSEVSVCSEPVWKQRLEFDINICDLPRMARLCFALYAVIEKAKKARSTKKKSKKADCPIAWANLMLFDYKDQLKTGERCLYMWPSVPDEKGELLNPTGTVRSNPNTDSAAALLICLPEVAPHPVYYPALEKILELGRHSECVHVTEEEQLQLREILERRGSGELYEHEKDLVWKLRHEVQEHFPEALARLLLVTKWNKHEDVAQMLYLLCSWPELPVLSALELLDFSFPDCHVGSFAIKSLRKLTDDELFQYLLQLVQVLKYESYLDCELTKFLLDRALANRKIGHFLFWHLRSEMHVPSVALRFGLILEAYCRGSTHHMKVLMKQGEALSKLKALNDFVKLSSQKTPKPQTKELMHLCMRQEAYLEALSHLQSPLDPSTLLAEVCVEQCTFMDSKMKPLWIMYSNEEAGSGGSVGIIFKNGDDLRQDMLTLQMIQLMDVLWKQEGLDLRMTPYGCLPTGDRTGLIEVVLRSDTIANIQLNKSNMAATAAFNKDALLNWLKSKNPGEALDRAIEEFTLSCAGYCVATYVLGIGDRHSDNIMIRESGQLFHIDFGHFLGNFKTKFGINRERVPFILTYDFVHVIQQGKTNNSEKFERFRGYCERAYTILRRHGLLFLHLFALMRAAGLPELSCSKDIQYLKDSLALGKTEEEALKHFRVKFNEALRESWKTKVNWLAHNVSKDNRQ
T13 sequence (P27986 whole entry partner): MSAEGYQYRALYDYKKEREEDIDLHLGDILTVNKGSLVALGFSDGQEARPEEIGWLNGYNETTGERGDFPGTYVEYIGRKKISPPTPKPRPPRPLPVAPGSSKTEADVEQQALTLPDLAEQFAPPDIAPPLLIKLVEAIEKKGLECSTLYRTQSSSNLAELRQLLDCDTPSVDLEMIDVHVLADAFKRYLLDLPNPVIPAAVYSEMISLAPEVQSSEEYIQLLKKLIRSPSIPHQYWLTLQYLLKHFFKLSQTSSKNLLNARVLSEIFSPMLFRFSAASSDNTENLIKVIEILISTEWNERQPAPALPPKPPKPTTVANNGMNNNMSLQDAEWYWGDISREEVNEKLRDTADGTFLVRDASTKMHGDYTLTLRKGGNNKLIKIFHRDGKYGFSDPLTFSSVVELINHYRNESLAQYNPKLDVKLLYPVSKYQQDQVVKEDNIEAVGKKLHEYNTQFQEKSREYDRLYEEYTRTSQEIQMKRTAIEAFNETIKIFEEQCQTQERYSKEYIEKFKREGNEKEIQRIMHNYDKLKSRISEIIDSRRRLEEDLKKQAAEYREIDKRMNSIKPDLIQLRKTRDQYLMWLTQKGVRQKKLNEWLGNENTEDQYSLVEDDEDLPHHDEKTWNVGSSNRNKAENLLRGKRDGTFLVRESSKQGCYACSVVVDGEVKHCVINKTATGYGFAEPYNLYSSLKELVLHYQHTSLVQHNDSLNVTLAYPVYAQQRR
Method: as §1

[15] = test system: CK1; assay: Radiometric kinase activity assay; assay type: biochemical; conditions: 5 μg/ml NR-818, 10 μM ATP
Method: as §1

[16] = target: T14, CDK2/cyclinE (Homo sapiens, UniProt P24941); assay: Radiometric kinase activity assay; assay type: biochemical; conditions: 5 μg/ml NR-818, 10 μM ATP
T14 construct: purchased Upstate Biotechnology
Method: as §1

[17] = target: T15, JNK1α1 (Homo sapiens, UniProt P45983); assay: Radiometric kinase activity assay; assay type: biochemical; conditions: 5 μg/ml NR-818, 10 μM ATP
T15 construct: purchased Upstate Biotechnology
Method: as §1

[18] = target: T16, CDK7/cyclinH (Homo sapiens, UniProt P50613); assay: Radiometric kinase activity assay; assay type: biochemical; conditions: 5 μg/ml NR-818, 10 μM ATP
T16 construct: purchased Upstate Biotechnology
Method: as §1

[19] = target: T17, CDK6/cyclinD3 (Homo sapiens, UniProt Q00534); assay: Radiometric kinase activity assay; assay type: biochemical; conditions: 5 μg/ml NR-818, 10 μM ATP
T17 construct: purchased Upstate Biotechnology
Method: as §1

[20] = target: T18, GSK-3β (Homo sapiens, UniProt P49841); assay: Radiometric kinase activity assay; assay type: biochemical; conditions: GSK-3β; 5 μg/ml NR-818, 10 μM ATP
T18 construct: purchased Upstate Biotechnology
T18 sequence (P49841 whole entry): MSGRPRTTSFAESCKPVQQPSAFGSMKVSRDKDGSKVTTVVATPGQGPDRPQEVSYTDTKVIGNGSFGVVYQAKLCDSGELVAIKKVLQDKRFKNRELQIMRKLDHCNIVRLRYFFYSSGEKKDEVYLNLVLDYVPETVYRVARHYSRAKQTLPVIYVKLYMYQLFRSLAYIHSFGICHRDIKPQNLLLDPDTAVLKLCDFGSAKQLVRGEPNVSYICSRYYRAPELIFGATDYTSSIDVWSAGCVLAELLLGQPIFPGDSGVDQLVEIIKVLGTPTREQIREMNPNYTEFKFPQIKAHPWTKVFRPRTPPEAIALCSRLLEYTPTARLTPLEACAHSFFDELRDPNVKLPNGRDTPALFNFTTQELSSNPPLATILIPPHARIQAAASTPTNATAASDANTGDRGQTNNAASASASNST
Method: as §1
(§2) By using this experimental set-up, the inhibiting activity of NR953 on GSK-3 is also tested.

[21] = target: T19, GSK-3α (Homo sapiens, UniProt P49840); assay: Radiometric kinase activity assay; assay type: biochemical; conditions: GSK-3α; 5 μg/ml NR-818, 10 μM ATP
T19 construct: purchased Upstate Biotechnology
Method: as §1, §2

[22] = Diabetic mouse glucose tolerance test; assay type: in vivo, mice; conditions: subcutaneously, 30 mg/kg
Excerpt: NR818 is formulated and tested in the diabetic mouse glucose tolerance test as described in example 269 of U.S. Pat. No. 6,489,344.

[23] = target: T20, p300 (H4 peptide) (Homo sapiens, UniProt Q09472); assay: Radiometric enzyme activity assay, p300 (H4 peptide); assay type: biochemical; conditions: 5 μg/ml NR-818, 10 μM ATP
T20 construct: purchased Upstate Biotechnology
Method: as §1

Cc1nc(S)n(Nc2cccc3ccccc23)c1-c1ccccc1 [HER/NR818, 4-Methyl-1-(naphthalen-1-ylamino)-5-phenyl-1,3-dihydro-imidazole-2-thione]
Activity (% of control) [1]: 88 % of control
IC50 [2]: 0.013 µg/mL (≈ 0.0392 µM)
Activity (% of control) [3]: 99 % of control
Activity (% of control) [4]: 92 % of control
Activity (% of control) [5]: 100 % of control
Activity (% of control) [6]: 87 % of control
Activity (% of control) [7]: 103 % of control
Activity (% of control) [8]: 98 % of control
Activity (% of control) [9]: 105 % of control
Activity (% of control) [10]: 99 % of control
Activity (% of control) [11]: 88 % of control
Activity (% of control) [12]: 96 % of control
Activity (% of control) [13]: 100 % of control
Activity (% of control) [14]: 89 % of control
Activity (% of control) [15]: 106 % of control
Activity (% of control) [16]: 101 % of control
Activity (% of control) [17]: 114 % of control
Activity (% of control) [18]: 100 % of control
Activity (% of control) [19]: 112 % of control
Activity (% of control) [20]: 65 % of control
Activity (% of control) [21]: 70 % of control
basal hyperglycemia just prior to the glucose tolerance test ([22]; diabetic mice): significant reduction
glucose disposal following glucose challenge ([22]; diabetic mice): significantly improved
tissue penetrance in vivo ([22]; mice): high
Activity (% of control) [23]: 100 % of control

Reference: patent US20120283303A1, “USE OF N-AMINOIMIDAZOLE CYTOPROTECTIVE COMPOUNDS FOR TREATING CELL DEATH AND/OR GSK-3 MEDIATED DISEASES” (K.U.LEUVEN RESEARCH AND DEVELOPMENT, priority 2006, published 2012)
